In the supplement of paper PMC11061612:

What was measured:
SN-38 = compound: CCc1c2c(nc3ccc(O)cc13)-c1cc3c(c(=O)n1C2)COC(=O)[C@]3(O)CC [SN-38]; settings: max 0.3 µM
Outline: (§1)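 Following 24 hours at 37°C and 5% CO2, cancer cell lines in 1536-well plates with 7.5 μl DMEM/F12 or RPMI and 10% FBS were dosed for 72 hours, final DMSO typically being 0.2%. CellTiter-Glo 2.0 luminescence, scaled between blank-well and DMSO-well means, gave the viability readout. Dose responses were fitted to a two-parameter logistic curve with a non-linear mixed effects model, and the single-agent IC50 was derived from this fit.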

Savolitinib = compound: C[C@@H](c1ccc2nccn2c1)n1nnc2ncc(-c3cnn(C)c3)nc21 [Savolitinib]; settings: max 1 µM
Outline: as §1

AZD1390 = compound: CC(C)n1c(=O)n(C)c2cnc3cc(F)c(-c4ccc(OCCCN5CCCCC5)nc4)cc3c21 [AZD1390]; settings: max 0.3 µM
Outline: as §1

AZD8186 = compound: C[C@@H](Nc1cc(F)cc(F)c1)c1cc(C(=O)N(C)C)cc2c(=O)cc(N3CCOCC3)oc12 [AZD8186]
Outline: as §1

Olaparib = compound: O=C(c1cc(Cc2n[nH]c(=O)c3ccccc23)ccc1F)N1CCN(C(=O)C2CC2)CC1 [Olaparib]; settings: max 10 µM
Outline: as §1

AZD5153 = compound: COc1nnc2ccc(N3CCC(c4ccc(OCCN5CCN(C)C(=O)[C@H]5C)cc4)CC3)nn12 [AZD5153]; settings: max 1 µM
Outline: as §1

Lapatinib = compound: CS(=O)(=O)CCNCc1ccc(-c2ccc3ncnc(Nc4ccc(OCc5cccc(F)c5)c(Cl)c4)c3c2)o1 [Lapatinib]; settings: max 10 µM
Outline: as §1

Taselisib = compound: Cc1nc(-c2cn3c(n2)-c2ccc(-c4cnn(C(C)(C)C(N)=O)c4)cc2OCC3)n(C(C)C)n1 [Taselisib]; settings: max 10 µM
Outline: as §1

Crizotinib = compound: C[C@@H](Oc1cc(-c2cnn(C3CCNCC3)c2)cnc1N)c1c(Cl)ccc(F)c1Cl [Crizotinib]; settings: max 10 µM
Outline: as §1

Trametinib = compound: CC(=O)Nc1cccc(-n2c(=O)n(C3CC3)c(=O)c3c(Nc4ccc(I)cc4F)n(C)c(=O)c(C)c32)c1 [Trametinib]; settings: max 1 µM
Outline: as §1

Alisertib = compound: COc1cc(Nc2ncc3c(n2)-c2ccc(Cl)cc2C(c2c(F)cccc2OC)=NC3)ccc1C(=O)O [Alisertib]; settings: max 10 µM
Outline: as §1

Gefitinib = compound: COc1cc2ncnc(Nc3ccc(F)c(Cl)c3)c2cc1OCCCN1CCOCC1 [Gefitinib]; settings: max 10 µM
Outline: as §1

AZD4320 = compound: CN(CC[C@H](CSC1=CC=CC=C1)NC2=C(C=C(C=C2)S(=O)(=O)NC(=O)C3=CC=C(C=C3)N4CCC(CC4)[C@H](C5=CC=CC=C5C6=CC=C(C=C6)Cl)O)S(=O)(=O)C(F)(F)F)CCO [AZD4320]; settings: max 1 µM
Outline: as §1

AZD0156 = compound: CN(C)CCCOc1ccc(-c2ccc3ncc4c(c3c2)n(C2CCOCC2)c(=O)n4C)cn1 [AZD0156]; settings: max 3 µM
Outline: as §1

Capivasertib = compound: C1CN(CCC1(C(=O)N[C@@H](CCO)C2=CC=C(C=C2)Cl)N)C3=NC=NC4=C3C=CN4 [Capivasertib]; settings: max 10 µM
Outline: as §1

AZD7648 = compound: Cc1cc2ncnn2cc1Nc1ncc2c(n1)n(C1CCOCC1)c(=O)n2C [AZD7648]; settings: max 10 µM
Outline: as §1

AZD5991 = compound: Cc1c2c(nn1C)CSCc1cc(n(C)n1)CSc1cc(c3ccccc3c1)OCCCc1c(C(=O)O)n(C)c3c-2c(Cl)ccc13 [AZD5991]; settings: max 1 µM
Outline: as §1

AZD2811 = compound: CCN(CCO)CCCOc1ccc2c(Nc3cc(CC(=O)Nc4cccc(F)c4)[nH]n3)ncnc2c1 [AZD2811]; settings: max 1 µM
Outline: as §1

Prexasertib = compound: COc1cccc(OCCCN)c1-c1cc(Nc2cnc(C#N)cn2)n[nH]1 [Prexasertib]; settings: max 1 µM
Outline: as §1

AZD6738 = compound: C[C@@H]1COCCN1C2=NC(=NC(=C2)C3(CC3)[S@](=N)(=O)C)C4=C5C=CNC5=NC=C4 [AZD6738]; settings: max 10 µM
Outline: as §1

Venetoclax = compound: CC1(C)CCC(CN2CCN(c3ccc(C(=O)NS(=O)(=O)c4ccc(NCC5CCOCC5)c([N+](=O)[O-])c4)c(Oc4cnc5[nH]ccc5c4)c3)CC2)=C(c2ccc(Cl)cc2)C1 [Venetoclax]; settings: max 1 µM
Outline: as §1

Dasatinib = compound: CC1=C(C(=CC=C1)Cl)NC(=O)C2=CN=C(S2)NC3=CC(=NC(=N3)C)N4CCN(CC4)CCO [Dasatinib]; settings: max 2 µM
Outline: as §1

Palbociclib = compound: CC(=O)c1c(C)c2cnc(Nc3ccc(N4CCNCC4)cn3)nc2n(C2CCCC2)c1=O [Palbociclib]; settings: max 10 µM
Outline: as §1

SG3199 = compound: CC1=CN2[C@@H](C1)C=NC3=CC(=C(C=C3C2=O)OC)OCCCCCOC4=C(C=C5C(=C4)N=C[C@@H]6CC(=CN6C5=O)C)OC [SG3199]; settings: max 0.001 µM
Outline: as §1

Doxorubicin = compound: COc1cccc2c1C(=O)c1c(O)c3c(c(O)c1C2=O)C[C@@](O)(C(=O)CO)C[C@@H]3O[C@H]1C[C@H](N)[C@H](O)[C@H](C)O1 [Doxorubicin]; settings: max 1 µM
Outline: as §1

Selumetinib = compound: Cn1cnc2c(F)c(Nc3ccc(Br)cc3Cl)c(C(=O)NOCCO)cc21 [Selumetinib]; settings: max 10 µM
Outline: as §1

AZD1775 = compound: C=CCn1c(=O)c2cnc(Nc3ccc(N4CCN(C)CC4)cc3)nc2n1-c1cccc(C(C)(C)O)n1 [AZD1775]; settings: max 3 µM
Outline: as §1

AZD5363 = compound: C1CN(CCC1(C(=O)N[C@@H](CCO)C2=CC=C(C=C2)Cl)N)C3=NC=NC4=C3C=CN4 [AZD5363]; settings: max 10 µM
Outline: as §1

5-Fluorouracil = compound: O=c1[nH]cc(F)c(=O)[nH]1 [5-Fluorouracil]; settings: max 20 µM
Outline: as §1

Paclitaxel = compound: CC(=O)O[C@H]1C(=O)[C@@]2(C)[C@H]([C@H](OC(=O)c3ccccc3)[C@]3(O)C[C@H](OC(=O)[C@H](O)[C@@H](NC(=O)c4ccccc4)c4ccccc4)C(C)=C1C3(C)C)[C@]1(OC(C)=O)CO[C@@H]1C[C@@H]2O [Paclitaxel]; settings: max 3 µM
Outline: as §1

Etoposide = compound: COc1cc([C@@H]2c3cc4c(cc3[C@@H](O[C@@H]3O[C@@H]5CO[C@@H](C)O[C@H]5[C@H](O)[C@H]3O)[C@H]3COC(=O)[C@H]23)OCO4)cc(OC)c1O [Etoposide]; settings: max 10 µM
Outline: as §1

Carboplatin = compound: C1CC(C1)(C(=O)[O-])C(=O)[O-].N.N.[Pt+2] [Carboplatin]; settings: max 10 µM
Outline: as §1

[1] = compound: O=C(Nc1ccc2[nH]nc(-c3ccncc3)c2c1)[C@@H]1CCN(CC(=O)N2CCN(c3ccc(-c4ncccn4)cc3)CC2)C1; settings: max 5 µM
Outline: as §1

MK-2206 = compound: NC1(c2ccc(-c3nc4ccn5c(=O)[nH]nc5c4cc3-c3ccccc3)cc2)CCC1 [MK-2206]; settings: max 10 µM
Outline: as §1

Gemcitabine = compound: Nc1ccn([C@@H]2O[C@H](CO)[C@@H](O)C2(F)F)c(=O)n1 [Gemcitabine]; settings: max 0.3 µM
Outline: as §1

SRA737 = compound: N#Cc1cnc(Nc2cc(NC[C@H]3CNCCO3)c(C(F)(F)F)cn2)cn1 [SRA737]; settings: max 10 µM
Outline: as §1

| Cell Line | IC50, cell viability 72 h (SN-38) [µM] | IC50, cell viability 72 h (Savolitinib) [µM] | IC50, cell viability 72 h (AZD1390) [µM] | IC50, cell viability 72 h (AZD8186; max 3 µM) [µM] | IC50, cell viability 72 h (Olaparib) [µM] | IC50, cell viability 72 h (AZD5153) [µM] | IC50, cell viability 72 h (Lapatinib) [µM] | IC50, cell viability 72 h (Taselisib) [µM] | IC50, cell viability 72 h (Crizotinib) [µM] | IC50, cell viability 72 h (Trametinib) [µM] | IC50, cell viability 72 h (Alisertib) [µM] | IC50, cell viability 72 h (Gefitinib) [µM] | IC50, cell viability 72 h (AZD4320) [µM] | IC50, cell viability 72 h (AZD0156) [µM] | IC50, cell viability 72 h (Capivasertib) [µM] | IC50, cell viability 72 h (AZD7648) [µM] | IC50, cell viability 72 h (AZD5991) [µM] | IC50, cell viability 72 h (AZD2811) [µM] | IC50, cell viability 72 h (Prexasertib) [µM] | IC50, cell viability 72 h (AZD6738) [µM] | IC50, cell viability 72 h (Venetoclax) [µM] | IC50, cell viability 72 h (Dasatinib) [µM] | IC50, cell viability 72 h (Palbociclib) [µM] | IC50, cell viability 72 h (SG3199) [µM] | IC50, cell viability 72 h (Doxorubicin) [µM] | IC50, cell viability 72 h (Selumetinib) [µM] | IC50, cell viability 72 h (AZD1775) [µM] | IC50, cell viability 72 h (AZD5363) [µM] | IC50, cell viability 72 h (5-Fluorouracil) [µM] | IC50, cell viability 72 h (AZD8186; max 10 µM) [µM] | IC50, cell viability 72 h (Paclitaxel) [µM] | IC50, cell viability 72 h (Etoposide) [µM] | IC50, cell viability 72 h (Carboplatin) [µM] | IC50, cell viability 72 h [1] [µM] | IC50, cell viability 72 h (MK-2206) [µM] | IC50, cell viability 72 h (Gemcitabine) [µM] | IC50, cell viability 72 h (SRA737) [µM] |
| --- | --- | --- | --- | --- | --- | --- | --- | --- | --- | --- | --- | --- | --- | --- | --- | --- | --- | --- | --- | --- | --- | --- | --- | --- | --- | --- | --- | --- | --- | --- | --- | --- | --- | --- | --- | --- | --- |
| G-401 (Other Solid Carcinomas) | 0.0589 | > 1 | > 0.3 | > 3 | > 10 | 0.0483 | > 10 | 0.336 | 5.41 | 0.0842 | 1 | > 10 | > 1 | > 3 | 2.71 | > 10 | > 1 | > 1 | 0.239 | > 10 | > 1 | > 2 | 0.833 | > 0.001 | 0.111 | > 10 | 1.41 |  |  |  |  |  |  |  |  |  |  |
| LC-1-sq (Squamous Cell Lung Carcinoma) | > 0.3 | > 1 | > 0.3 | > 3 | > 10 | 0.49 | > 10 | > 10 | > 10 | > 1 | > 10 | > 10 | > 1 | > 3 | > 10 | > 10 | > 1 | > 1 | 0.0164 | 2.13 | > 1 | > 2 | > 10 | > 0.001 | > 1 | > 10 | 0.294 |  |  |  |  |  |  |  |  |  |  |
| EJM (Plasma Cell Myeloma) | 0.0259 | > 1 | > 0.3 | > 3 | > 10 | 0.414 | > 10 | > 10 | 6.79 | > 1 | > 10 | > 10 | > 1 | > 3 | > 10 | > 10 | 0.332 | > 1 | 0.00891 | 1.65 | > 1 | > 2 | > 10 | > 0.001 | 0.837 | > 10 | 0.202 |  |  |  |  |  |  |  |  |  |  |
| EFO-21 (Ovarian Carcinoma) | > 0.3 | > 1 | > 0.3 |  | > 10 | > 1 | > 10 | > 10 | > 10 | > 1 | > 10 | > 10 | > 1 | > 3 |  | > 10 | > 1 | > 1 | 0.101 | > 10 | > 1 | > 2 | > 10 | > 0.001 | > 1 | > 10 | > 3 | > 10 | > 20 | > 10 | > 3 | > 10 | > 10 | > 5 | > 10 | > 0.3 | > 10 |
